# Earlier results, collected in US10137085B2, “Nanoemulsion for transdermal delivery and method of making the same” (Nano and Advanced Materials Institute Limited, priority 2014, dated 2018).
# Counter-ions that a name gives are not always drawn. Like-named read-outs stand apart in the source and are kept apart here.
# What was measured:
# [1] = o/w microemulsion with oleyl alcohol and NMP, compared to aqueous solution
SMILES,increase of permeation efficiency through skin (solid-in-oil nanodispersion vs control aqueous solution),"increase of permeation efficiency through skin (solid-in-oil nanodispersion with urea as enhancer vs control aqueous solution, after 24 h)",enhancement of drug permeability [1]
CN(Cc1cnc2nc(N)nc(N)c2n1)c1ccc(C(=O)N[C@@H](CCC(=O)O)C(=O)O)cc1 [methotrexate],two- to three,approximately 8.8 fold,
C[C@]12CC[C@@H]3c4ccc(O)cc4CC[C@H]3[C@@H]1CC[C@@H]2O [estradiol],,,58 fold
COc1ccc([C@@H]2Sc3ccccc3N(CCN(C)C)C(=O)[C@@H]2OC(C)=O)cc1 [diltiazem HCl],,,520 fold
